Values quoted from earlier work in article PMC11915035, “Characterization of [^3H]Propionylated Human Peptide YY-A New Probe for Neuropeptide Y Y2 Receptor Binding Studies” (ACS Pharmacology & Translational Science, 2025).
Like-named read-outs stand apart in the source and are kept apart here. Values belong to the compound of their own block, whether it stands above or below them.

Key:
[1] = molecular target: rat hippocampal membrane preparation; conditions: KRP buffer, […] Na+; species of peptide not indicated; ref Dumont et al.[25]
From the text: (§1) Table 1 Reported Peptidic Radioligands Used for Y2R Binding Studies | column: Kd [nM]

Y1R, Y2R, Y4R, Y5R = conditions: ref 2−4
From the text: Activation of all four receptor subtypes is induced by the homologous neuropeptides NPY, peptide YY (PYY), and pancreatic polypeptide (PP).[1]

[2] = molecular target: calf hippocampus membrane preparation; conditions: Krebs–Ringer/20 mM HEPES, 137 mM Na+; species of peptide not indicated; ref Czerwiec et al.[34]
From the text: as §1

pY2R = conditions: COS-7 pY2R; 50 mM HEPES, 0 mM Na+; species of peptide not indicated; ref Rose et al.[2]
From the text: as §1

Y2R = conditions: read-out: literature IC50, sodium-containing buffer

Compound: [^125I]PYY (3–36): iodine-125 labeled derivative of PYY
Kd [1]: 0.013 nM

Compound: pancreatic polypeptide [PP]
YR binding preference (Y1R, Y2R, Y4R, Y5R): clear preference for Y4R over the other YRs

Kd [2]: 0.7 nM
Compound: N-[^3H]propionyl-NPY: tritiated NPY derivative, most likely [^3H]propionylated at the ε-amino group of Lys^4

Compound: [^125I]NPY: iodine-125 labeled derivative of NPY; species human or not indicated
Kd (pY2R): 0.58 nM

IC50 (Y2R; ref Shoblock et al.[39]): 8.5 nM
IC50 (Y2R; ref Swanson et al.[59]): 6 nM
Compound: CCN(CC)C(=O)C(c1ccccc1)N1CCN(c2ccc(NC(=O)c3ccccc3-c3cccnc3)cc2F)CC1 (stereo not shown) [JNJ31020028, N-(4–4-[2-(diethylamino)-2-oxo-1-phenylethyl]piperazin-1-yl-3-fluorophenyl)-2-pyridin-3-ylbenzamide]

Compound: [^125I]PYY: iodine-125 labeled derivative of PYY; species porcine or not indicated
Kd (pY2R): 0.27 nM
